Test results taken from US20190055279A1, “NOVEL POLYPEPTIDES WITH IMPROVED PROTEOLYTIC STABILITY, AND METHODS OF PREPARING AND USING SAME” (TUFTS UNIVERSITY, priority 2015, published 2019).
Several values for one entry are separate records, joined by “and”; a condition that tells them apart may be missing. Equal values may be shown once. Where a SMILES comes first, the peptide text is derived from it. Side-chain parts run from the residue outwards. [ ]: non-standard residue; d: D form. The star is where a group is joined. N(CH2CF3)His = O=C(O)[C@H](Cc1c[nH]cn1)NCC(F)(F)F; Palmitoyl = CCCCCCCCCCCCCCCC(=O)*; βAla = NCCC(=O)O

Experiments:
DPP4 [1] = target: T1, DPP4 (Homo sapiens, UniProt P27487); test: DPP4 degradation of GLP-2 peptides: incubation with recombinant DPP4, then GLP-2R reporter assay
Method: Peptides were incubated with vehicle or recombinant DPP4. Serial dilutions of GLP2-1 and GLP2-4 were then applied to HEK293 cells, which had been transfected with cDNA encoding human GLP-2R and a cAMP-responsive reporter gene.
Peptides were incubated with recombinant DPP4. Serial dilutions of GLP-2 and GLP2-4 were then applied to HEK293 cells, which had been transfected with cDNA encoding human GLP-2R and a cAMP-responsive reporter gene. […] N=4, mean+SEM.
DPP4 resistance (FIG. 13): Lipidated peptides are compared with the prototype, F-GLP2-palm. After an overnight incubation (16 hrs) in the presence vs. the absence of DPP4, receptor mediated function is assessed as shown elsewhere herein. As a DPP4 susceptible control, parallel experiments are done using GLP-2. […] Following overnight preincubation, serial dilutions of ligands were prepared and added to GLP-2R expressing cells for 4 hours. A luciferase reporter gene assay was used to monitor Gαs coupled second messenger signaling.

C57BL/6J mice = test: Intestinal mucosal growth after five daily s.c. injections in C57BL/6J mice; assay type: in vivo; conditions: s.c. once daily for five days; for intestinal mucosal growth / trophic effect: 25 μg/mouse for villus height; for intestinal weight: sacrificed on day 6, N=6 animals/group
Method: C57BL/6J mice were injected s.c. once daily for five days with either vehicle, GLP2-L17K(l1)-4, or Gattex at indicated doses. Animals were sacrificed on day 6, followed by analysis of intestinal tissue.
C57BL/6J mice were injected s.c. once daily for five days with either vehicle, GLP2-L17K [L1]-4 or Gattex at indicated doses. Animals were sacrificed on day 6, followed by measurement of intestinal weight. […] C57BL/6J mice were injected s.c. once daily for five days with either 25 μg of GLP2-L17K [L1]-4 or vehicle. Animals were sacrificed on day 6.

[2] = Plasma GLP-2R agonist activity 24 h after s.c. injection in mice (luciferase reporter gene assay); assay type: in vivo; conditions: 1.25 μg s.c., compared with Gattex
Method: Clearance of this compound was compared to that of Gattex, an established GLP-2 based drug, Compounds (1.25 μg) were injected subcutaneously (s.c.) in mice. Plasma was collected after 24 h and analyzed by luciferase reporter gene assay for GLP-2R agonist activity.
Compounds (1.25 μg) were injected s.c. in mice. Plasma was collected after 24 h and analyzed by luciferase reporter gene assay for GLP-2R agonist activity.

FAP = target: T2, FAP (Homo sapiens, UniProt Q12884); test: Stability assay with or without FAP, read out by receptor bioassay (FIG. 9A, FIG. 18); conditions: incubated with or without FAP
T2 sequence (Q12884 1-760): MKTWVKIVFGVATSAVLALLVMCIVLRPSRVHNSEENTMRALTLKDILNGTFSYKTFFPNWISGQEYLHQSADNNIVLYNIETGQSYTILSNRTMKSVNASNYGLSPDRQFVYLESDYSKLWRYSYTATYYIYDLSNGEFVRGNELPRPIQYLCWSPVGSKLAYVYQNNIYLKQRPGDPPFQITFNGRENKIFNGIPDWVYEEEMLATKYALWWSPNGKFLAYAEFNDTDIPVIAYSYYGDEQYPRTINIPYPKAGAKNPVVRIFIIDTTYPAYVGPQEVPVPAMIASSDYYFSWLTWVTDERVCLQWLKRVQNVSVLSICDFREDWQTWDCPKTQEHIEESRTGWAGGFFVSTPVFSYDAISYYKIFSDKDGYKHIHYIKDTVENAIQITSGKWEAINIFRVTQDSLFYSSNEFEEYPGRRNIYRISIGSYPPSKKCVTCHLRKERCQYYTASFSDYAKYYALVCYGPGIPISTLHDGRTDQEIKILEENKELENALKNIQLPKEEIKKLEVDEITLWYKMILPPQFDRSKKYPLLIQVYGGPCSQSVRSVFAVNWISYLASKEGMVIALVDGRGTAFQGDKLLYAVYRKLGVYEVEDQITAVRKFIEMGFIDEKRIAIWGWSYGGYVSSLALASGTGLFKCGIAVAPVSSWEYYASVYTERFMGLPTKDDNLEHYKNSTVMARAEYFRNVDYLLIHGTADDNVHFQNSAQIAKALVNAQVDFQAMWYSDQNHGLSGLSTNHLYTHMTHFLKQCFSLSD

DPP2 = DPP2 (Homo sapiens, UniProt Q9UHL4); test: Stability assay with or without DPP2, read out by receptor bioassay (FIG. 9A); conditions: incubated with or without DPP2
[3] = cited from earlier work
DPP4 [4] = target: T1, DPP4; test: Sensitivity to DPP4: overnight incubation with recombinant DPP4 or vehicle, then receptor agonist bioassay; conditions: overnight incubation with or without DPP4, readout at cognate receptor
Method: Plotting concentration versus the luciferase activity yielded quantitative parameters for combined binding (potency) and signaling (efficacy) in a single step. […] DPP4 treated peptides: 10 μl of 0.26 mM peptide were incubated with 2 μL DPP4 in buffer ±DMSO for 18 hrs. Control peptides: 10 μl of 0.26 mM peptide was added to buffer ±DMSO. The final DMSO concentration was the same for all peptides and all peptides were diluted to 0.26 mM concentrations for the DPP4 assay.
Compounds are incubated overnight at 37° C. in the presence of recombinant DPP4 or vehicle (TRIS buffer). The samples are then assessed in GLP-1R agonist assays.
Compounds were incubated overnight at 37° C. in the presence of recombinant DPP4 or vehicle (TRIS buffer, pH 8.0). The samples were then assessed in GLP1R agonist assays as described elsewhere herein.

T1 sequence (P27487 whole entry, species assumed): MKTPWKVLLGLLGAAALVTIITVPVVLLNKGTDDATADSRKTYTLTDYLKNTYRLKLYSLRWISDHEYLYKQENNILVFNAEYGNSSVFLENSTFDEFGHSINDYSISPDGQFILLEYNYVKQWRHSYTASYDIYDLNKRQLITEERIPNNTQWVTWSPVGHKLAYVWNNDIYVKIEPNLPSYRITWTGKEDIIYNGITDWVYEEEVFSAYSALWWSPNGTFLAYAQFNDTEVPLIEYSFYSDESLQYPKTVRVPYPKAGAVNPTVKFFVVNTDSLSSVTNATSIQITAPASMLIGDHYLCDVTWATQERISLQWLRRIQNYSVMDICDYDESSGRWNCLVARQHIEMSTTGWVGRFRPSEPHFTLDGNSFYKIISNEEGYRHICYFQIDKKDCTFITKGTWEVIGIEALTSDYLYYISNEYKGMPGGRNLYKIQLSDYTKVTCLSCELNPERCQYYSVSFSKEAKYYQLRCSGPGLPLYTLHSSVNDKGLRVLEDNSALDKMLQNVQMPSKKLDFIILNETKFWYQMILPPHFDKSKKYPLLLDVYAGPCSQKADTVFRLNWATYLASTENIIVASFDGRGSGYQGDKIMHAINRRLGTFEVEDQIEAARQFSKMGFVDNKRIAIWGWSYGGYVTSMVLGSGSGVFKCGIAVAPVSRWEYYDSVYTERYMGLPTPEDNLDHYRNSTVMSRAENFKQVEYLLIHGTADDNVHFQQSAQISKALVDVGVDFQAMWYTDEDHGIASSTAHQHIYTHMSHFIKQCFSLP

SMILES: CCCCCCCCCCCCCCCC(=O)NCCC(=O)NCCCC[C@H](NC(=O)[C@H](CC(N)=O)NC(=O)[C@H](CC(=O)O)NC(=O)[C@H](CC(C)C)NC(=O)[C@@H](NC(=O)[C@@H](NC(=O)[C@H](CC(N)=O)NC(=O)[C@H](CCSC)NC(=O)[C@H](CCC(=O)O)NC(=O)[C@H](CC(=O)O)NC(=O)[C@H](CO)NC(=O)[C@H](Cc1ccccc1)NC(=O)[C@H](CO)NC(=O)CNC(=O)[C@H](CC(=O)O)NC(=O)[C@H](C)NC(=O)[C@H](Cc1c[nH]cn1)NCC(F)(F)F)[C@@H](C)O)[C@@H](C)CC)C(=O)N[C@@H](C)C(=O)N[C@@H](C)C(=O)N[C@@H](CCCNC(=N)N)C(=O)N[C@@H](CC(=O)O)C(=O)N[C@@H](Cc1ccccc1)C(=O)N[C@H](C(=O)N[C@@H](CC(N)=O)C(=O)N[C@@H](Cc1c[nH]c2ccccc12)C(=O)N[C@@H](CC(C)C)C(=O)N[C@H](C(=O)N[C@@H](CCC(N)=O)C(=O)N[C@H](C(=O)N[C@@H](CCCCN)C(=O)N[C@H](C(=O)N[C@H](C(=O)N[C@@H](CC(=O)O)C(=O)O)[C@@H](C)O)[C@@H](C)CC)[C@@H](C)O)[C@@H](C)CC)[C@@H](C)CC [GLP2-L17K(l1)-4] (H-[N(CH2CF3)His]ADGSFSDEMNTILDNK([βAla-Palmitoyl])AARDFINWLIQTKITD-OH; N-terminus and C-terminus assumed)
- DPP4 degradation / resistance (in words) (DPP4 [1]; GLP-2R readout): refractory to DPP4 degradation
- DPP4 degradation / resistance (in words) (DPP4 [1]; GLP-2R readout, listed as F-GLP2-palm): protease (DPP4) resistant
- intestinal mucosal growth / trophic effect (C57BL/6J mice): induces intestinal mucosal growth
- intestinal mucosal growth / trophic effect (C57BL/6J mice; listed as GLP2-L17K [L1]-4): trophic effect on the intestinal mucosa
- intestinal weight (C57BL/6J mice): enhances intestinal weight
- intestinal weight (C57BL/6J mice; listed as GLP2-L17K [L1]-4): increased intestinal weight in a dose dependent manner
- bioactivity in plasma 24 h after injection [2]: extended bioactivity in vivo
- bioactivity in plasma 24 h after injection ([2]; listed as GLP2-L17K [L1]-4): remains at high levels in the circulation

SMILES: CC[C@H](C)[C@H](NC(=O)[C@H](Cc1ccccc1)NC(=O)[C@H](CCC(=O)O)NC(=O)[C@H](CCCCN)NC(=O)[C@H](C)NC(=O)[C@H](C)NC(=O)[C@H](CCC(N)=O)NC(=O)CNC(=O)[C@H](CCC(=O)O)NC(=O)[C@H](CC(C)C)NC(=O)[C@H](Cc1ccc(O)cc1)NC(=O)[C@H](CO)NC(=O)[C@H](CO)NC(=O)[C@@H](NC(=O)[C@H](CC(=O)O)NC(=O)[C@H](CO)NC(=O)[C@@H](NC(=O)[C@H](Cc1ccccc1)NC(=O)[C@@H](NC(=O)CNC(=O)[C@H](CCC(=O)O)NC(=O)[C@H](C)NC(=O)[C@@H](N)Cc1c[nH]cn1)[C@@H](C)O)[C@@H](C)O)C(C)C)C(=O)N[C@@H](C)C(=O)N[C@@H](Cc1c[nH]c2ccccc12)C(=O)N[C@@H](CC(C)C)C(=O)N[C@H](C(=O)N[C@@H](CCCCN)C(=O)NCC(=O)N[C@@H](CCCNC(=N)N)C(N)=O)C(C)C [GLP-1, glucagon-like peptide-1, reference compound]
- stability to FAP (in words) (FAP): major potency losses
- stability to DPP2 (in words) (DPP2): major potency losses

SMILES: CC[C@H](C)[C@H](NC(=O)[C@H](Cc1ccccc1)NC(=O)[C@H](CC(=O)O)NC(=O)[C@H](CCCN=C(N)N)NC(=O)[C@H](C)NC(=O)[C@H](C)NC(=O)[C@H](CC(C)C)NC(=O)[C@H](CC(N)=O)NC(=O)[C@H](CC(=O)O)NC(=O)[C@H](CC(C)C)NC(=O)[C@@H](NC(=O)[C@@H](NC(=O)[C@H](CC(N)=O)NC(=O)[C@H](CCSC)NC(=O)[C@H](CCC(=O)O)NC(=O)[C@H](CC(=O)O)NC(=O)[C@H](CO)NC(=O)[C@H](Cc1ccccc1)NC(=O)[C@H](CO)NC(=O)CNC(=O)[C@H](CC(=O)O)NC(=O)[C@H](C)NC(=O)[C@@H](N)Cc1cnc[nH]1)[C@@H](C)O)[C@@H](C)CC)C(=O)N[C@@H](CC(N)=O)C(=O)N[C@@H](Cc1c[nH]c2ccccc12)C(=O)N[C@@H](CC(C)C)C(=O)N[C@H](C(=O)N[C@@H](CCC(N)=O)C(=O)N[C@H](C(=O)N[C@@H](CCCCN)C(=O)N[C@H](C(=O)N[C@H](C(=O)N[C@@H](CC(=O)O)C(=O)O)[C@@H](C)O)[C@@H](C)CC)[C@@H](C)O)[C@@H](C)CC [GLP-2, glucagon-like peptide-2, reference compound]
- DPP4 degradation / resistance (in words) (DPP4 [1]; GLP-2R readout): degraded by DPP4
- loss in potency induced by DPP4 (DPP4 [1]; GLP-2R readout, N=4): > 40 fold
- peptide degraded by DPP4 (DPP4 [1]; inferred from potency loss): > 97% and ~97%
- half-life in vivo [3]: 7 min

SMILES: CC[C@H](C)[C@H](NC(=O)[C@H](CO)NC(=O)[C@H](Cc1ccc(O)cc1)NC(=O)[C@H](CC(=O)O)NC(=O)[C@H](CO)NC(=O)[C@@H](NC(=O)[C@H](Cc1ccccc1)NC(=O)[C@@H](NC(=O)CNC(=O)[C@H](CCC(=O)O)NC(=O)[C@H](C)NC(=O)[C@H](Cc1ccc(O)cc1)NCC(F)(F)F)[C@@H](C)O)[C@@H](C)CC)C(=O)N[C@@H](C)C(=O)N[C@@H](CCSC)C(=O)N[C@@H](CC(=O)O)C(=O)N[C@@H](CCCCN)C(=O)N[C@H](C(=O)N[C@@H](Cc1c[nH]cn1)C(=O)N[C@@H](CCC(N)=O)C(=O)N[C@@H](CCC(N)=O)C(=O)N[C@@H](CC(=O)O)C(=O)N[C@@H](Cc1ccccc1)C(=O)N[C@H](C(=O)N[C@@H](CC(N)=O)C(=O)N[C@@H](Cc1c[nH]c2ccccc12)C(=O)N[C@@H](CC(C)C)C(=O)N[C@@H](CC(C)C)C(=O)N[C@@H](C)C(=O)N[C@@H](CCC(N)=O)C(=O)N[C@@H](CCCCN)C(=O)NCC(=O)N[C@@H](CCCCN)C(=O)N[C@@H](CCCCN)C(=O)N[C@@H](CC(N)=O)C(=O)N[C@@H](CC(=O)O)C(=O)N[C@@H](Cc1c[nH]c2ccccc12)C(=O)N[C@@H](CCCCN)C(=O)N[C@@H](Cc1c[nH]cn1)C(=O)N[C@@H](CC(N)=O)C(=O)N[C@H](C(=O)N[C@H](C(=O)N[C@@H](CCC(N)=O)C(=O)O)[C@@H](C)O)[C@@H](C)CC)C(C)C)[C@@H](C)CC [I-4]
- stability to FAP (in words) (FAP): stable
- DPP4 degradation / resistance (in words) (DPP4 [4]): resistant
- DPP4 degradation / resistance (in words) (DPP4 [4]; listed as I4): stable
- stability to DPP2 (in words) (DPP2): stable
